Test results published in PubChem BioAssay (NCI).
“And” between values parts separate entries of the source, which are not always exact repeats. Equal entries are not always repeated.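 Grown in 96-well plates, cells were treated for 48 hours with each compound at five concentrations. Insufficient inhibition: endpoint recorded as highest concentration tested. GI50: concentration for 50% inhibition of growth. The concentration for full growth arrest is given as TGI.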

What was measured:
Assay in all cases: growth of human tumour cells (NCI), 48 h
CAKI-1 renal = system: CAKI-1 renal
HCC-2998 colon = system: HCC-2998 colon
HCT-116 colon = system: HCT-116 colon
KM12 colon = system: KM12 colon
LOX IMVI melanoma = system: LOX IMVI melanoma
NCI-H522 lung = system: NCI-H522 lung
SF-295 CNS = system: SF-295 CNS
SF-539 CNS = system: SF-539 CNS
SK-MEL-5 melanoma = system: SK-MEL-5 melanoma
UACC-257 melanoma = system: UACC-257 melanoma

| SMILES | GI50 (CAKI-1 renal) | TGI (CAKI-1 renal) | GI50 (HCC-2998 colon) | TGI (HCC-2998 colon) | GI50 (HCT-116 colon) | TGI (HCT-116 colon) | GI50 (KM12 colon) | TGI (KM12 colon) | GI50 (LOX IMVI melanoma) | TGI (LOX IMVI melanoma) | GI50 (NCI-H522 lung) | TGI (NCI-H522 lung) | GI50 (SF-295 CNS) | TGI (SF-295 CNS) | GI50 (SF-539 CNS) | TGI (SF-539 CNS) | GI50 (SK-MEL-5 melanoma) | TGI (SK-MEL-5 melanoma) | GI50 (UACC-257 melanoma) | TGI (UACC-257 melanoma) |
| --- | --- | --- | --- | --- | --- | --- | --- | --- | --- | --- | --- | --- | --- | --- | --- | --- | --- | --- | --- | --- |
| CCN(CC)CC(O)c1cc(-c2ccc(Cl)cc2)nc2cc(Cl)ccc12 (configuration not stated) | 1.21 µM | 2.64 µM | 1.67 µM | 3.1 µM | 1.65 µM | 3.15 µM | 1.7 µM | 3.18 µM | 1.24 µM | 2.51 µM | 1.62 µM | 3.14 µM | 1.81 µM | 3.37 µM | 2.03 µM | 4.63 µM | 1.61 µM | 2.99 µM | 1.86 µM | 3.61 µM |
| COc1cccc(/C=C2\CCc3ccccc3C2=O)c1 | 11.3 µM | 36.4 µM | 15.8 µM | 30.6 µM | 9.26 µM | 25.3 µM | 6.31 µM | 18.8 µM | 12.9 µM | 36.8 µM | 4.09 µM | 22.3 µM | 9.62 µM | 27.3 µM | 16.4 µM | 36.9 µM | 10.7 µM | 23 µM | 13.4 µM | 28.9 µM |
| CC(C)=Cc1cc(C(=O)NCCNC(=O)c2cc(C=C(C)C)nc(NC#N)n2)nc(NC#N)n1 | – | > 100 µM | – | > 100 µM | – | > 100 µM | – | > 100 µM | – | > 100 µM | – | > 100 µM | – | > 100 µM | – | > 100 µM | – | > 100 µM | – | > 100 µM |
| COc1ccc(Nc2ncccc2C(=O)NCc2cn(Cc3cccc(Oc4ccccc4)c3)nn2)c(OC)c1 | 1.26 µM | > 100 µM | 2.64 µM | > 29 µM | 1.66 µM | > 100 µM | 1.11 µM | > 100 µM | 2.54 µM | > 100 µM | 1.44 µM | 6.46 µM | 0.552 µM | 22.2 µM | 2.43 µM | 19.2 µM | 0.635 µM | 7.93 µM | 13.4 µM | > 100 µM |
| CCC1OC(=O)CC(O)C(C)C(OC2OC(C)CC(N(C)C)C2O)C(CC=O)CC(C)C(=O)/C=C/C2(C)OC2C1C (configuration not stated) | – | 74.1 µM | – | > 100 µM | – | 31.6 µM | – | 28.6 µM | – | 48 µM | – | 54.9 µM | – | 77.1 µM | – | 29.6 µM | – | 29.3 µM | – | > 100 µM |
| COc1ccc(/C=C/C(=O)c2ccccc2)cc1OC | 14.1 µM | 38.2 µM and 35.6 µM | 14.2 µM | 33.2 µM and 28.6 µM | 3.51 µM | 20.2 µM and 14.2 µM | 6 µM | 10.2 µM and > 100 µM | 3.32 µM | 28.1 µM and 14.6 µM | 4.18 µM | 31.5 µM and 19.6 µM | 14.5 µM | 32.9 µM and 34 µM | 16.4 µM | 25.7 µM and 36.1 µM | 14.5 µM | 31.4 µM and 27.9 µM | – | 31.7 µM and 31.4 µM |
| COc1ccc(OC)c(-c2cc(=O)c3cc4c(cc3[nH]2)OCO4)c1 | – | > 65.7 µM | – | 17.6 µM | – | > 35.7 µM | – | > 46 µM | – | > 100 µM | – | 9.26 µM | – | > 27.6 µM | – | 16.2 µM | – | 28 µM | – | > 100 µM |
| Cc1cc2nc3c4cc([N+](=O)[O-])ccc4n(CCN(C)C)c3nc2cc1C | 0.334 µM | 2.21 µM | 0.683 µM | 2.34 µM | 0.353 µM | 2.84 µM | 0.56 µM | > 100 µM | 0.28 µM | 1.19 µM | 0.893 µM | 4.94 µM | 0.388 µM | 1.79 µM | 0.469 µM | 2.56 µM | 1.02 µM | 2.21 µM | 0.725 µM | 4.21 µM |
| COc1cc([C@@H]2c3cc4c(cc3[C@@H](NC(=O)c3ccc(OC(C)=O)cc3)C3COC(=O)[C@@H]32)OCO4)cc(OC)c1O (some centres not stated) | – | 15.8 µM | – | 14.7 µM | – | 15.3 µM | – | 11.9 µM | – | 10.1 µM | – | 4.37 µM | – | 50.9 µM | – | 3.14 µM | – | 13.2 µM | – | 31.9 µM |
| COc1ccc2c(c1)C(=O)c1c-2c(OCCN2CCCCC2)nc2ccc(OC)cc12 | 0.342 µM | 2.96 µM | 1.23 µM | 9.24 µM | 0.393 µM | 1.64 µM | 0.585 µM | 2.1 µM | 0.42 µM | 1.73 µM | 0.523 µM | 2.11 µM | 0.529 µM | 15.2 µM | 0.693 µM | 12.4 µM | 1.92 µM | 5.61 µM | 2.07 µM | 6.9 µM |
| CCCCCCn1c2c(c3c(O)cccc31)C(=O)c1ccccc1-2 | 26.9 µM | 63.8 µM | 15.7 µM | 29.4 µM | 17.2 µM | 30.9 µM | 17.6 µM | 34.4 µM | 18.1 µM | 33.8 µM | 17.2 µM | 35.9 µM | 21 µM | 44.8 µM | 18 µM | 35.7 µM | 19.4 µM | 34.6 µM | 15.1 µM | 32.9 µM |
| Cn1c(=O)c(-c2c(Cl)cccc2Cl)cc2cnc(Nc3ccc(I)cc3)nc21 | < 0.0247 µM | – | < 0.0293 µM | 0.213 µM | – | 0.305 µM | 0.0452 µM | 1.5 µM | 0.271 µM | 1.12 µM | 0.457 µM | 1.89 µM | 0.147 µM | 1.41 µM | < 0.0146 µM | 0.114 µM | < 0.0104 µM | 0.157 µM | 2.38 µM | > 68.8 µM |
| Nc1nc(Cl)nc2c1ncn2C1OC(CO)C(O)C1O (configuration not stated) | 4.3 µM | > 100 µM | > 21.9 µM | > 100 µM | 4.23 µM | > 100 µM | > 100 µM | > 100 µM | 15.2 µM | > 100 µM | > 100 µM | > 100 µM | > 100 µM | > 100 µM | > 90.1 µM | > 100 µM | 2.89 µM | > 100 µM | > 100 µM | > 100 µM |
